# Earlier results in patent US20040115234A1, “Cosmetic composition” (priority 2002, published 2004).
# What was measured:
# eyelashes = settings: Latanoprost at 0.005% by weight; clinical studies over up to 12 months; % of the subjects tested
smiles,measurement,setting,value
"CC(C)OC(=O)CCC/C=C\C[C@@H]1[C@@H](CC[C@@H](O)CCc2ccccc2)[C@H](O)C[C@@H]1O [Latanoprost, isopropyl-(Z)-7[(1R, 2R, 3R, 5S)3,5-dihydroxy-2-[(3R)-3-hydroxy-5-phenylpentyl]cyclopentyl]-5-heptenoate]",subjects with induced change in color of eyelashes,eyelashes,16.5%
same,subjects with induced change in density of eyelashes,eyelashes,22.2%
same,subjects with induced change in length of eyelashes,eyelashes,25.8%
same,subjects with induced change in thickness of eyelashes,eyelashes,17.5%
same,solubility in water,,limited solubility in water
